Test results reported in US20120295838A1, “Selective poly-substituted glycine antibiotics and related compositions” (priority 2008, published 2012).
Like-named read-outs stand apart in the source and are kept apart here. Square brackets hold non-standard residues; d marks the D form. Peptide text beside a SMILES is read from it. N(1S-Me-propyl)Gly = CC[C@H](C)NCC(=O)O; Nrpe = C[C@@H](NCC(=O)O)c1ccccc1; Nspe = C[C@H](NCC(=O)O)c1ccccc1; Nlys = NCCCCNCC(=O)O

How the values were obtained:
MTS assay, NIH 3T3 cells = format: cell-based, mouse; details: NIH 3T3 fibroblast cells
Method: The potencies of all compounds were determined against representative Gram-negative (E. coli ATCC 35218) and Gram-positive (B. subtilis ATCC 6633) biosafety level 1 (BSL1) organisms. In addition to hemolytic activity, the conventional measure of toxicity to mammalian cells, the effect of each ampetoid on NIH 3T3 mouse fibroblast cells was determined using the MTS tetrazolium salt-based colorimetric assay. While hemolysis measures the degree to which erythrocytes are lysed, the MTS assay indirectly quantifies the extent to which cellular metabolic activity is inhibited.
MTS assays. NIH/3T3 cells (ATCC Corporation) cultured at 37° C. and 5% CO2 in complete Dulbecco's modified eagle's media (CDMEM) supplemented with 1% sodium pyruvate, 1% penicillin-streptomycin, 1.5 g/L NaHCO3, and 10% fetal bovine serum. Cells were seeded at a density of 5,000 cells per well for NIH/3T3 cells in 96-well plates (100 μl total volume). A peptoid solution plate (100 μL total volume per well) was prepared by serial dilution of aqueous peptoid stock solution in Hank's balanced salt solution (HBSS) media. The day-old cell monolayers were washed with HBSS and media was replaced with 100 μL HBSS. The contents of the peptoid solution plate were transferred onto corresponding wells of the cell monolayer plate, and 40 μL MTS reagent (Promega, Inc.) was added to each well. After incubating for 3 hours at 37° C., absorbance at 490 nm was determined. […] The average of six replicates is reported.

E. coli ATCC 35218 = format: cell-based; details: ATCC 35218
Method: Whereas the preceding generation of molecules was designed to elucidate structure function relationships of specific molecular parameters (chirality, length, hydrophobicity, etc.), another generation compounds were designed explicitly to explore effects on selectivity. Antimicrobial activity of these compounds was tested against bacterial strains E. coli (ATTC 35218) and B. subtilis (ATTC 6633) in cation-adjusted MHB using the microdilution protocols previously described. The sequences, antimicrobial activities, hemolytic activities, and metabolic inhibitory concentrations against NIH 3T3 mouse fibroblast cells are summarized in Table 3 and the rationale of their design is described below.
Screening antibacterial assays. MICs were determined in 96-well microtiter plates in accordance with CLSI M7-A6 protocols. Peptoid solutions with 50 μL total volume were prepared using 2:1 serial dilutions. 50 i—tL of bacteria inoculum (1×10^6 CFU/mL) prepared in cation-adjusted Mueller-Hinton broth (CAMHB) was added to test wells. Control wells contained 100 μL MHB (no growth) or 50 μL inoculums with 50 μL MHB with no peptoid. […] Reported values were reproducible over three experiments, each containing two parallel trials.
Antibacterial Assays for Compositions. MICs were determined according to CLSI M7-A6 protocols in a 96-well microtiter plate. In test wells, 50 μL bacterial inoculum (1×10^6 CFU/ml) in cation-adjusted Mueller-Hinton broth (CAMHB) was added to 50 μL peptoid solution in CAMHB (prepared by 1:2 serial dilutions). Positive controls contained 50 μL inoculum and 50 μL CAMHB without peptoid. […] MIC values reported were reproducible between three independent experimental replicates, each consisting of two parallel trials.

human erythrocytes = assay: Hemolysis assay; format: cell-based
Method: (§1) Hemolysis assays. Erythrocytes were isolated from freshly drawn, heparanized human blood and resuspended to 20 vol % in PBS (pH 7.4). In a 96-well microtiter plate, 100 μL erythrocyte suspension was added to 100 uL peptoid solution in PBS (prepared by 1:2 serial dilutions), or 100 μL PBS in the case of negative controls. 100% hemolysis wells contained 100 μL, blood cell suspension with 100 μL 0.2 vol % Triton X-100. The plate was incubated for 1 h at 37° C., then each well was diluted with 1504 PBS. The plate was then centrifuged at 1200 g for 15 min, 100 μL of the supernatant from each well transferred to a fresh microtiter plate, and A350 measured.
Hemolysis assays. Erythrocytes were isolated from freshly drawn, heparanized human blood and resuspended in PBS (pH 7.4) to make a 20% volume suspension. Peptoid solutions were prepared by serial dilution (2:1) in a 96-well microtiter plate. For test wells, 100 μLL of erythrocyte suspension was added to 100 μL of peptoid solution in PBS; PBS without peptoid was used as the negative control and 0.2 vol % Triton X-100 as the positive control that indicates 100% hemolysis. After 1 hour incubation at 37° C., each well was diluted with 150 μL PBS. Plates were then centrifuged at 1,200×g for 15 minutes to pellet the cells. 30 μL of the supernatant from each well were transferred to the corresponding well of a second 96-well plate that contains 70 μL PBS.
as §1, with “assays for Compositions.” for “assays.”, “100” for “100 uL”, “μL” for “μL,”, “150 μL” for “1504”, “1200g” for “1200 g”

[1] = Table 6, 50% inhibitory dose against NIH 3T3 mouse fibroblast cells, read-out: ID50

E. coli MIC (E. coli ATCC 35218) | Structure (SMILES) | CC50 at 3 h (MTS assay, NIH 3T3 cells; mouse) | CC50 at 3 h (MTS assay, NIH 3T3 cells; [1]) | also measured
50 µM | C[C@H](NCC(=O)N(CCCCN)CC(=O)N(CC(=O)N(CCCCN)CC(=O)N(CCCCN)CC(=O)N(CC(=O)N(CC(=O)N(CCCCN)CC(=O)N(CC(=O)N(CCCCN)CC(=O)N(CCCCN)CC(=O)N(CC(=O)N(CC(=O)N(CCCCN)CC(=O)N(CC(N)=O)[C@@H](C)c1ccccc1)[C@@H](C)c1ccccc1)[C@@H](C)c1ccccc1)[C@@H](C)c1ccccc1)[C@@H](C)c1ccccc1)[C@@H](C)c1ccccc1)[C@@H](C)c1ccccc1)c1ccccc1 [1B15 mer-Nlys4,10, H-(Nspe-Nlys-Nspe-Nlys-Nlys-Nspe)2-Nspe-Nlys-Nspe-NH2] (H-[Nspe][Nlys][Nspe][Nlys][Nlys][Nspe][Nspe][Nlys][Nspe][Nlys][Nlys][Nspe][Nspe][Nlys][Nspe]-NH2) | 16 µM | – | –
– | C[C@H](c1ccccc1)N(CC(=O)N(CC(N)=O)[C@@H](C)c1ccccc1)C(=O)CN(CCCCN)C(=O)CN(C(=O)CN(C(=O)CN(CCCCN)C(=O)CN(C(=O)CN(C(=O)CN(CCCCN)C(=O)CN(C(=O)CN(C(=O)CNCCCCN)[C@H](C)c1ccccc1)[C@@H](C)c1ccccc1)[C@H](C)c1ccccc1)[C@@H](C)c1ccccc1)[C@H](C)c1ccccc1)[C@@H](C)c1ccccc1 [1-Nrpe2,5,8,11, H-(Nlys-Nrpe-Nspe)4-NH2] (H-[Nlys][Nrpe][Nspe][Nlys][Nrpe][Nspe][Nlys][Nrpe][Nspe][Nlys][Nrpe][Nspe]-NH2) | – | 5.2 µM | –
– | C[C@H](c1ccccc1)N(CC(N)=O)C(=O)CN(C(=O)CN(CCCCN)C(=O)CN(C(=O)CN(C(=O)CN(CCCCN)C(=O)CN(C(=O)CN(C(=O)CN(CCCCN)C(=O)CN(C(=O)CN(C(=O)CNCCCCN)[C@@H](C)c1ccccc1)[C@H](C)c1ccccc1)[C@@H](C)c1ccccc1)[C@H](C)c1ccccc1)[C@@H](C)c1ccccc1)[C@H](C)c1ccccc1)[C@@H](C)c1ccccc1 [1-Nrpe3,6,9,12, H-(Nlys-Nspe-Nrpe)4-NH2] | – | 3.8 µM | –
50 µM | C[C@H](NCC(=O)N(CCCCN)CC(=O)N(CC(=O)N(CCCCN)CC(=O)N(CCCCN)CC(=O)N(CC(=O)N(CC(=O)N(CCCCN)CC(=O)N(CC(=O)N(CCCCN)CC(=O)N(CCCCN)CC(=O)N(CC(N)=O)[C@@H](C)c1ccccc1)[C@@H](C)c1ccccc1)[C@@H](C)c1ccccc1)[C@@H](C)c1ccccc1)[C@@H](C)c1ccccc1)c1ccccc1 [1B12 mer-Nlys4,10, H-(Nspe-Nlys-Nspe-Nlys-Nlys-Nspe)2-NH2] (H-[Nspe][Nlys][Nspe][Nlys][Nlys][Nspe][Nspe][Nlys][Nspe][Nlys][Nlys][Nspe]-NH2) | 83 µM | – | –
– | C[C@H](NCC(=O)N(CCCCN)CC(=O)N(CC(=O)N(CCCCN)CC(=O)N(CCCCN)CC(=O)N(CCCCN)CC(=O)N(CC(=O)N(CCCCN)CC(=O)N(CC(=O)N(CCCCN)CC(=O)N(CCCCN)CC(=O)N(CC(N)=O)[C@@H](C)c1ccccc1)[C@@H](C)c1ccccc1)[C@@H](C)c1ccccc1)[C@@H](C)c1ccccc1)c1ccccc1 [1B12 mer-Nlys4,6,10, H-Nspe-Nlys-Nspe-Nlys-Nlys-Nlys-Nspe-Nlys-Nspe-Nlys-Nlys-Nspe-NH2] (H-[Nspe][Nlys][Nspe][Nlys][Nlys][Nlys][Nspe][Nlys][Nspe][Nlys][Nlys][Nspe]-NH2) | > 100 µM | – | –
– | C[C@@H](c1ccccc1)N(CC(N)=O)C(=O)CN(C(=O)CN(CCCCN)C(=O)CN(C(=O)CN(C(=O)CNCCCCN)[C@@H](C)c1ccccc1)[C@@H](C)c1ccccc1)[C@@H](C)c1ccccc1 [16 mer, H-(Nlys-Nspe-Nspe)2-NH2] (H-[Nlys][Nspe][Nspe][Nlys][Nspe][Nspe]-NH2) | – | – | HD10 (human erythrocytes): >200/>200 μM; HD50 (human erythrocytes): >200/>200 μM
50 µM | C[C@@H](c1ccccc1)N(CC(N)=O)C(=O)CN(C(=O)CN(CCCCN)C(=O)[C@@H]1CCCN1C(=O)CN(C(=O)CN(CCCCN)C(=O)CN(C(=O)CN(C(=O)CN(CCCCN)C(=O)[C@@H]1CCCN1C(=O)CN(C(=O)CNCCCCN)[C@@H](C)c1ccccc1)[C@@H](C)c1ccccc1)[C@@H](C)c1ccccc1)[C@@H](C)c1ccccc1)[C@@H](C)c1ccccc1 [1-Pro3,9, H-(Nlys-Nspe-L-Pro-Nlys-Nspe-Nspe)2-NH2] (H-[Nlys][Nspe]P[Nlys][Nspe][Nspe][Nlys][Nspe]P[Nlys][Nspe][Nspe]-NH2) | 71 µM | – | –
– | C[C@H](c1ccccc1)N(CC(=O)N(CCCCN)CC(=O)N(CC(=O)N(CC(=O)N(CCCCN)CC(=O)N(CC(=O)N(CC(=O)N(CCCCN)CC(=O)N(CC(=O)N(CC(N)=O)[C@@H](C)c1ccccc1)[C@@H](C)c1ccccc1)[C@@H](C)c1ccccc1)[C@@H](C)c1ccccc1)[C@H](C)c1ccccc1)[C@H](C)c1ccccc1)C(=O)CN(C(=O)CNCCCCN)[C@H](C)c1ccccc1 [1-Nrpe2,3,5,6, H-(Nlys-Nrpe-Nrpe)2-(Nlys-Nspe-Nspe)2-NH2] (H-[Nlys][Nrpe][Nrpe][Nlys][Nrpe][Nrpe][Nlys][Nspe][Nspe][Nlys][Nspe][Nspe]-NH2) | – | 4.8 µM | –
– | CC[C@H](C)N(CC(=O)N(CC(=O)N(CC(=O)N(CCCCN)CC(N)=O)[C@@H](C)c1ccccc1)[C@@H](C)CC)C(=O)CN(CCCCN)C(=O)CN(C(=O)CN(CCCCN)C(=O)CN(C(=O)CN(C(=O)CN(C(=O)CN(C(=O)CNCCCCN)[C@@H](C)CC)[C@@H](C)c1ccccc1)[C@@H](C)CC)[C@@H](C)c1ccccc1)[C@@H](C)c1ccccc1 [2scrambled, H-Nlys-Nssb-Nspe-Nssb-Nspe-Nlys-Nspe-Nlys-Nssb-Nssb-Nspe-Nlys-NH2] (H-[Nlys][N(1S-Me-propyl)Gly][Nspe][N(1S-Me-propyl)Gly][Nspe][Nlys][Nspe][Nlys][N(1S-Me-propyl)Gly][N(1S-Me-propyl)Gly][Nspe][Nlys]-NH2) | – | – | HD10 (10% hemolytic dose) (human erythrocytes): > 120 µM
– | C[C@@H](c1ccccc1)N(CC(N)=O)C(=O)CN(C(=O)CN(CCC(=O)O)C(=O)CN(C(=O)CN(C(=O)CN(CCC(=O)O)C(=O)CN(C(=O)CN(C(=O)CN(CCC(=O)O)C(=O)CN(C(=O)CN(C(=O)CNCCC(=O)O)[C@@H](C)c1ccccc1)[C@@H](C)c1ccccc1)[C@@H](C)c1ccccc1)[C@@H](C)c1ccccc1)[C@@H](C)c1ccccc1)[C@@H](C)c1ccccc1)[C@@H](C)c1ccccc1 [1-Nglu1.4.7.10, H-(Nglu-Nspe-Nspe)4-NH2] | – | – | HD10 (10% hemolytic dose) (human erythrocytes; red cells of human, 1 h): >110/>110 μM
